What was measured:
HSV-1 [1] = assay: Virus yield reduction assay, HSV-1; type: cell-based, herpes simplex virus 1; conditions: Hep-2 cells, — = less than 90% inhibition
[2] = Cytotoxicity, MTT method, Hep-2 cells; type: cell-based; conditions: human
Description: (§1) The 50% cell cytotoxic concentrations (CC50s) of compounds were calculated using SPSS software. SI were calculated from the ratio of CC50: EC50.

HSV-1 [3] = assay: Plaque reduction assay, HSV-1 in Hep-2 cells; conditions: for SI HSV-1, ratio CC50/EC50 / inhibition of HSV-1-induced plaque formation: Hep-2 cells; for EC50: Human alphaherpesvirus 1, HEp-2, read-out: EC50 HSV-1; for inhibition of HSV-1-induced plaque formation: inhibition achievable
Description: Confluent monolayers of Hep-2 cells, seeded in a 24-well plate, were infected with HSV-1 at a density of 60–80 plaque-forming units (PFU) per well and treated with media (pre-warmed DMEM containing 2% FBS, 0.8% low-melting agarose) mixed with or without the serially diluted tested compounds for the periods indicated following different procedures. The cells were incubated at 37°C until plaques appeared, followed by fixing with 10% formaldehyde and staining with 0.5% crystal violet. The plaques were counted by visual examination. The ratio of the number of plaques in the treated group to that in the untreated control was calculated.
A plaque reduction assay was performed to measure the inhibitory effects of the test compounds against HSV-1 infection.

[4] = Cytotoxicity, MTT method, uninfected RD cells; type: cell-based; conditions: human
Description: as §1

H1N1 [5] = assay: Virus yield reduction assay, H1N1; type: cell-based, influenza virus A/human/Hubei/86/2009 (H1N1); conditions: MDCK cells; — = less than 90% inhibition
Description: Virus yield reduction assays were also carried out to evaluate further the protective effects of the tested compounds.
The virus suspension, serially diluted 10-fold with DMEM containing 2% FBS, was inoculated to cells in a 96-well plate. After 1 h incubation at 37°C in 5% CO2, unbinding virus was washed out and DMEM maintenance medium supplemented with 2% FBS was added to the cells. After 2 days, the infected cells were monitored for cytopathic effects (CPEs). The virus titer was calculated by the Reed–Muench method.

ADV-7 [6] = assay: Virus yield reduction assay, ADV-7; type: cell-based, adenovirus 7; conditions: Human mastadenovirus B; HeLa cells; read-out: EC90 ADV-7, concentration required to inhibit 90% virus yield
ADV-7 [7] = assay: Inhibition of ADV-7-induced CPE in HeLa cells; conditions: for SI ADV-7, ratio CC50/EC50: HeLa cells; for EC50: Human mastadenovirus B, HeLa, 48 h, read-out: EC50 ADV-7
Description: (§3) Cell viability was assessed by an MTT assay, which functions based on the reduction of a MTT into formazan dye by active mitochondria. The cells were treated with 100 μL of MTT (1 mg/mL, Sigma) and incubated at 37°C for 4 h. The reaction was blocked by DMSO and measured in a microplate reader (Bio-Tek Instruments) at 492 nm. The untreated control was arbitrarily set as 100%.
(§4) Confluent cell monolayers in 96-well dishes were infected with 100 TCID50 of corresponding virus dilution mixed with serial dilutions of tested compounds for 1 h at 37°C. Inocula were aspirated and the cells were then incubated with various concentrations of DMEM/tested compounds at 37°C, 5% CO2 for 48 h. CPE were observed microscopically and the viability of the cells was determined using MTT assays. […] The concentrations required for the tested compounds to achieve 50% protection of cells from virus-induced CPE were determined.

EV71 [8] = assay: Adsorption analysis, EV71 on RD cells; type: cell-based, Enterovirus 71; conditions: 160 μM pimprinethine, 80 μM WS-30581 A, 80 μM WS-30581 B; EV71 10^4 TCID50; 2 h adsorption
H1N1 [9] = assay: Inhibition of H1N1-induced CPE in MDCK cells; type: cell-based, influenza virus A/human/Hubei/86/2009 (H1N1)
[10] = Cytotoxicity, MTT method, HeLa cells; type: cell-based; conditions: human
Description: as §1

CVB3 [11] = assay: Inhibition of CVB3-induced CPE in Hep-2 cells; conditions: for EC50: Enterovirus B, CVB3, HEp-2, 48 h, read-out: EC50 CVB3; for SI CVB3, ratio CC50/EC50: Hep-2 cells
Description: as §3, §4

EV71 [12] = assay: Virucidal activity against EV71; type: cell-based, Enterovirus 71; conditions: 80 μM pimprinethine, 40 μM WS-30581 A or 40 μM WS-30581 B; 24 h at 4°C; 10^3 TCID50
EV71 [13] = assay: Progeny virus yield reduction, EV71 in RD cells; type: cell-based, Enterovirus 71; conditions: for reduction in progeny virus titers relative to virus control: 80 μM; for EC90: Enterovirus A, EV71, RD cells, progeny viral yield, read-out: EC90, compound concentration required to achieve 90% virus yield reduction
EV71 [14] = conditions: EV71, RD cells
Description: as §3, §4

EV71 [15] = assay: Effective stage analysis, EV71 in RD cells; type: cell-based, Enterovirus 71; conditions: 48 h; for virus titer reduction vs untreated cells: 80 μM, added post infection, EV71 100 TCID50; for viability at 80 µM: Enterovirus A, RD, added post infection (therapeutic), EV71 100 TCID50, read-out: viability rates of the infected cells
[16] = Cytotoxicity, MTT method, MDCK cells; type: cell-based, canine; conditions: dog, uninfected MDCK cells, host cells of H1N1: MDCK
Description: as §1

EV71 [17] = assay: microbe, parasite or virus in culture; conditions: Enterovirus A, EV71, RD, 48 h, read-out: EC50, compound concentration required to achieve 50% protection from virus-induced cytopathogenicity
Description: as §3, §4

[18] = Cytotoxicity, ATPLite luminescence-based assay, RD cells; type: cell-based; conditions: human
Text: (§2) The ATPLite assay may be more sensitive to cytotoxicity than the MTT method. For RD and Hep-2 cells, similar results were obtained, and for HeLa and MDCK cells, the values of CC50 from the ATPLite assay were smaller than those from MTT assays (Tables 1, 2 and 3).

EV71 [19] = assay: Release analysis, EV71 from RD cells; type: cell-based, Enterovirus 71; conditions: 80 μM pimprinethine, 40 μM WS-30581 A or B; 12 h p.i.
[20] = design: method as in PMID 6501088; conditions: ddY mice, intraperitoneal injection; cited from earlier work
CVB3 [21] = assay: Virus yield reduction assay, CVB3; type: cell-based, Coxsackievirus B3; conditions: Enterovirus B, CVB3; Hep-2 cells; — = less than 90% inhibition; read-out: EC90 CVB3, concentration required to inhibit 90% virus yield
EV71 [22] = assay: Dependence of anti-EV71 activity on virus inoculum (cell viability, MTT) in RD cells; type: cell-based, Enterovirus 71; conditions: virus concentration above 10^4 TCID50
[23] = Cytotoxicity, ATPLite luminescence-based assay, Hep-2 cells; type: cell-based; conditions: human
Text: as §2

[24] = Cytotoxicity, ATPLite luminescence-based assay, MDCK cells; type: cell-based, canine; conditions: dog
Text: as §2

[25] = Cytotoxicity, ATPLite luminescence-based assay, HeLa cells; type: cell-based; conditions: human
Text: as §2

[26] = RD cells, MTT, 48 h, mean ± SD of three experiments, read-out: CC50, compound concentration required to reduce cell viability by 50%
[27] = uninfected HeLa cells, host cells of ADV-7: HeLa, MTT, 48 h, read-out: CC50 (ADV-7)
[28] = 100 TCID50 EV71, RD cells, 10 h
[29] = uninfected Hep-2 cells, host cells of CVB3: Hep-2, MTT, 48 h, read-out: CC50 (CVB3)

| SMILES | CC50 at 48 h [2] [µM] | SI HSV-1, ratio CC50/EC50 (HSV-1 [3]) | EC50 (HSV-1 [3]) [µM] | CC50 at 48 h [4, 26] [µM] | EC90 H1N1, concentration required to inhibit 90% virus yield (H1N1 [5]) | EC90 (ADV-7 [6]) [µM] | SI ADV-7, ratio CC50/EC50 (ADV-7 [7]) | EC50 (ADV-7 [7]) [µM] | EC90 HSV-1, concentration required to inhibit 90% virus yield (HSV-1 [1]) | virus titer during virus attachment (adsorption) (EV71 [8]) | inhibition of H1N1 infection (H1N1 [9]; MDCK cells) | CC50 at 48 h [10, 27] [µM] | EC50 (CVB3 [11]) [µM] | SI CVB3, ratio CC50/EC50 (CVB3 [11]) | virus titers of EV71 mixture with vs without compound (virucidal activity) (EV71 [12]) | reduction in progeny virus titers relative to virus control (EV71 [13]; [28]) [log] | EC90 (EV71 [13]) [µM] | SI (selectivity index), ratio CC50/EC50 (EV71 [14]) | EC50 (EV71 [17]) [µM] | EC90 (CVB3 [21]) [µM] | also measured |
| --- | --- | --- | --- | --- | --- | --- | --- | --- | --- | --- | --- | --- | --- | --- | --- | --- | --- | --- | --- | --- | --- |
| Nc1nc2c(ncn2COCCO)c(=O)[nH]1 [Acyclovir, reference compound] | > 2000 | >181 | 11 ± 1 |  |  |  |  |  |  |  |  |  |  |  |  |  |  |  |  |  | EC90 (HSV-1 [1]; Human alphaherpesvirus 1, read-out: EC90 HSV-1, concentration required to inhibit 90% virus yield): 24 ± 5 µM |
| CCCc1ncc(-c2c[nH]c3ccccc23)o1 [WS-30581 A] |  | 4 | 18 ± 2 | 363 ± 13 | — (—, less than 50% or 90% inhibition) | 43 ± 3 | 13 | 17 ± 18 | — (—, less than 50% or 90% inhibition) | no significant decrease | less than 70% | 217 ± 4 | 14 ± 4 | 5 | No significant difference | 3.0 | 26 ± 6 | 23 | 16 ± 1 | 39 ± 4 | EC50 (H1N1 [9]; Influenza A virus, H1N1, MDCK, 48 h, read-out: EC50 H1N1): 38 ± 7 µM; SI H1N1, ratio CC50/EC50 (H1N1 [9]; MDCK cells): 6; virus titer reduction vs untreated cells (EV71 [15]): approximately 5.0 log; viability at 80 µM (EV71 [15]): ~100%; CC50 at 48 h [2, 29]: 72 ± 8 µM; CC50 at 48 h [16]: 212 ± 18 µM; CC50 [18]: 313 ± 49 µM; release of EV71 from RD cells (EV71 [19]): unaffected; acute toxicity [20]: above 250 mg/kg; inhibition of HSV-1-induced plaque formation (HSV-1 [3]): approximately 80%; anti-EV71 inhibition at excessive virus inoculum (EV71 [22]): Inhibition was eliminated |
| NC(=O)c1ncn([C@@H]2O[C@H](CO)[C@@H](O)[C@H]2O)n1 [Ribavirin, reference compound] | 1310 ± 385 |  |  |  |  | 132 ± 22 | 13 | 116 ± 19 |  | no significant decrease |  |  | 90 ± 10 | 15 |  |  | 136 ± 49 | 12 | 102 ± 68 | 103 ± 17 | CC50 at 48 h [4]: 1230 ± 355 µM; CC50 at 48 h [10]: 1520 ± 243 µM; reduction in progeny virus titers (EV71 [13]; 160 μM, 100 TCID50 EV71, RD cells, 10 h): ~2.0 log |
| CCc1ncc(-c2c[nH]c3ccccc23)o1 [Pimprinethine] |  | 6 | 45 ± 3 | 835 ± 20 | — (—, less than 50% or 90% inhibition) | 63 ± 5 | 23 | 33 ± 6 | — (—, less than 50% or 90% inhibition) | no significant decrease | negligible measurable inhibition | 750 ± 30 | 22 ± 4 | 12 | No significant difference | 3.0 | 42 ± 3 | 24 | 35 ± 4 | 58 ± 9 | EC50 H1N1 (H1N1 [9]; MDCK cells, 100 TCID50, 48 h, CPE, — = less than 50% inhibition): — (—, less than 50% or 90% inhibition); CC50 [23]: 233 ± 36 µM; CC50 [24]: 406 ± 48 µM; CC50 [25]: 550 ± 103 µM; virus titer reduction vs untreated cells (EV71 [15]): approximately 5.0 log; viability at 80 µM (EV71 [15]): ~100%; CC50 at 48 h [2, 29]: 256 ± 49 µM; CC50 at 48 h [16]: 577 ± 73 µM; CC50 [18]: 656 ± 82 µM; release of EV71 from RD cells (EV71 [19]): unaffected; inhibition of HSV-1-induced plaque formation (HSV-1 [3]): approximately 80%; anti-EV71 inhibition at excessive virus inoculum (EV71 [22]): Inhibition was eliminated |
